# Measurements taken from patent US20220090217A1, “BIOMARKERS AND USES THEREOF IN THE TREATMENT OF CHRONIC HBV INFECTION” (Janssen Sciences Ireland Unlimited Company, priority 2020, published 2022).
# Tested on: chronic hepatitis B (CHB) patients
# Assay: Onset of clinical relapse after stop of NA treatment (Cox proportional hazard regression)
# Format: in vivo, human
# Conditions: entecavir compared to tenofovir; among the 110 clinical relapsers
# Description: Patients and Study Design: In this multi-center prospective study in Taiwan, 242 CHB patients were enrolled while in their last half year of a minimum 3-year treatment regimen with direct antivirals. Of them, 47 were excluded due to protocol violation, screening failure, lost to follow-up, withdrawal by the subject, use of immune related therapy, or on-treatment clinical relapse. An additional 14 were excluded as the analysis required patients to be hepatitis B e-antigen (HBeAg) negative, hepatitis virus (HBV) DNA <60 IU/mL, and alanine transaminase (ALT) <80 U/L at the last on-treatment visit, leaving […] patients eligible for analysis. […] Cumulative incidence of virological and clinical relapse after stop of treatment was assessed by Kaplan-Meier curves (FIGS. 1A and 1B). […] Statistical Analysis of HLA Data: The association between the HLA alleles (at two and four digits resolution for each locus) and diversity (genetic homozygosity and HED score, independently) and onset of relapse was assessed using a Cox model (Harrell et al., JAMA: The Journal of the American Medical Association, 1982, 247: 2543) including HBsAg level at the last visit on treatment (high (≥100 IU/mL) vs. low (<100 IU/mL)) and the antiviral treatment at enrolment (tenofovir vs. entecavir) as main effects. […]
smiles,measurement,value
C=C1[C@H](CO)[C@@H](O)C[C@@H]1n1cnc2c(=O)[nH]c(N)nc21 [entecavir],"onset of clinical relapse later after stopping treatment, on average",100 days
